Experimental data as given in patent US20240115557A1, “INHIBITORS OF RNA-GUIDED NUCLEASES AND USES THEREOF” (The Brigham and Women's Hospital, Inc., priority 2022, published 2024).

Target: SpCas9 (Streptococcus pyogenes serotype M1, UniProt Q99ZW2)
Test: eGFP disruption assay, SpCas9, U2OS.eGFP.PEST cells
Assay type: cell-based
Conditions: for Normalized Z rep1 / Z score Rep1: replicate 1; for SpCas9 eGFP disruption Rep1: replicate 1, raw readout; for Normalized Z rep2 / Z socre Rep2: replicate 2; for SpCas9 eGFP disruption Rep2: replicate 2, raw readout
Outline: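 Rescue of eGFP signal lost through Cas9-induced NHEJ indels serves as the inhibition read-out, after 24 h compound exposure (20 μM for hits, variable for dose-response). Editing was delivered by nucleofection into U2OS.eGFP.PEST cells as SpCas9/gRNA plasmids (300/30 ng) or RNP (10/12 pmol). Toxic and autofluorescent compounds were excluded.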

[1] = Cas9 = lower control, Ctrl = upper control
[2] = normalized, lower control about 0, upper control about 1

Sequence of SpCas9 (Q99ZW2 whole entry): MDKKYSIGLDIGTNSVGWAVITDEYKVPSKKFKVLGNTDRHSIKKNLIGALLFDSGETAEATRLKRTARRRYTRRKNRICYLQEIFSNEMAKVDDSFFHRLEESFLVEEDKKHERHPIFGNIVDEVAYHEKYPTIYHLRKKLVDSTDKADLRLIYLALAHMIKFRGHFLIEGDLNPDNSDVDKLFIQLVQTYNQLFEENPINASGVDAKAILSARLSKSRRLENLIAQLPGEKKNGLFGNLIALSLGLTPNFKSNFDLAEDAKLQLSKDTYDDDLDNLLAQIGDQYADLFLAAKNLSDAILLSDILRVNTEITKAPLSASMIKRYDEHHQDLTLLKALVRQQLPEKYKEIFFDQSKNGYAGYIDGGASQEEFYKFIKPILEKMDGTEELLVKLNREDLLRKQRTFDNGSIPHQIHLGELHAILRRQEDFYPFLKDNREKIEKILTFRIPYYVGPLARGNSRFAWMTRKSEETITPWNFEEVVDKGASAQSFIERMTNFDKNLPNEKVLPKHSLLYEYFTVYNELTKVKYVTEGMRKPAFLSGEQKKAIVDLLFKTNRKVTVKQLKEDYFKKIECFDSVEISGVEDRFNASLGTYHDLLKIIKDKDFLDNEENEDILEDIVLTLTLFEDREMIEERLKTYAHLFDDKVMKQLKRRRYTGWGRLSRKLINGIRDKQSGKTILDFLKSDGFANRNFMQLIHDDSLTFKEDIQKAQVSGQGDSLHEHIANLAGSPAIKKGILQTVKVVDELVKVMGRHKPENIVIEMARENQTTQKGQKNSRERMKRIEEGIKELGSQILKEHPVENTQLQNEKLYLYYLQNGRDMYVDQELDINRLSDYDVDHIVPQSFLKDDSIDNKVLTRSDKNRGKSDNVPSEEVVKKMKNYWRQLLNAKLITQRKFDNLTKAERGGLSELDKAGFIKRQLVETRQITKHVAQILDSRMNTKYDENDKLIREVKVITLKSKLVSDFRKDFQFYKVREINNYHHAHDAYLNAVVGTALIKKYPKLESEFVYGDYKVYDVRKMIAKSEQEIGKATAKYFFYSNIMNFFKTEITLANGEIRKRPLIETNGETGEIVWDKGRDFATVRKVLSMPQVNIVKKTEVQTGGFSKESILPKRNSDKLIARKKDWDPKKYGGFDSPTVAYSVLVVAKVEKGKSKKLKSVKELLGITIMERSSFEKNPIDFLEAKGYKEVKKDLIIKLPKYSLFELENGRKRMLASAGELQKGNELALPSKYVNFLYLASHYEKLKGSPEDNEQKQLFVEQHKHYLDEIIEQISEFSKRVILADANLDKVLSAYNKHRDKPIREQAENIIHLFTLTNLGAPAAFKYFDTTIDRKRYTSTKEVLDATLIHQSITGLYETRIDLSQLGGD

Structure (SMILES) | EC50 (EC50 in eGFP disruption assay, U2OS.eGFP.PEST, SpCas9 plasmid and sgRNA plasmid, 0.3 uM to 20 uM, 24 h (FIG. 44A/C)) | EC50 (EC50 in the eGFP disruption assay, from three independent experiments) | Potency relative to BRD0539 (more potent than BRD0539) | Normalized Z rep1 | Z score Rep1 | SpCas9 eGFP disruption Rep1 | Normalized Z rep2 | Z socre Rep2 | SpCas9 eGFP disruption Rep2 | SpCas9 eGFP disruption Rep1 [1] | Normalized Z rep1 [2] | SpCas9 eGFP disruption Rep2 [1] | Normalized Z rep2 [2]
O=C(CCS(=O)(=O)c1ccc(Cl)cc1)Nc1nc(-c2ccncc2)cs1 [BRD7586] | 5.55 µM | 6.2 ± 1.2 µM | ~2 fold | – | – | – | – | – | – | – | – | – | –
c1ccc(Cc2nn3c(-c4cccnc4)nnc3s2)cc1 [Compound D727-0066] | – | – | – | −0.11 | −0.78 | 64.43 | −0.15 | −1.42 | 58.807 | – | – | – | –
Cc1nc2ccccc2n1Cc1nnc2n1N=C(N)CS2 [Compound D727-0339] | – | – | – | −0.25 | −1.83 | 60.982 | −0.15 | −1.41 | 58.84 | – | – | – | –
Cc1ccccc1OCc1nn2c(C(C)C)nnc2s1 [Compound D727-0350] | – | – | – | −0.47 | −3.41 | 55.746 | −0.04 | −0.36 | 61.985 | – | – | – | –
Cc1ccccc1OCc1nn2c(C(C)(C)C)nnc2s1 [Compound D727-0351] | – | – | – | – | 0.29 | – | – | 1.32 | – | 67.967 | 0.04 | 67.06 | 0.14
Brc1ccc(OCc2nn3c(-c4ccccn4)nnc3s2)cc1 [Compound D727-0522] | – | – | – | −0.12 | −0.85 | 64.203 | 0.08 | 0.79 | 65.458 | – | – | – | –
Fc1ccc(OCc2nn3c(-c4ccccn4)nnc3s2)cc1 [Compound D727-0525] | – | – | – | −0.49 | −3.56 | 55.263 | −0.39 | −3.59 | 52.257 | – | – | – | –
NC(=O)c1c(NC(=O)COCc2cc(-c3ccc4c(c3)OCO4)on2)sc2c1CCCC2 [Compound E613-0091] | – | – | – | −0.19 | −1.37 | 62.484 | −0.32 | −2.94 | 54.219 | – | – | – | –
NS(=O)(=O)c1ccc(CCNC(=O)C2=Cc3sc4c(c3CS2)CCCC4)cc1 [Compound E722-2588] | – | – | – | −0.16 | −1.14 | 63.246 | 0.13 | 1.22 | 66.773 | – | – | – | –
NC(=O)c1sc(=S)n2c1[nH]c(=O)c1ccc(Cl)cc12 [Compound F083-0067] | – | – | – | −0.09 | −0.66 | 64.842 | −0.23 | −2.14 | 56.626 | – | – | – | –
CCCN1CCN(c2ccc(C(=O)O)cc2NC(=O)c2ccccc2Cl)CC1 [Compound F086-0004] | – | – | – | −0.17 | −1.20 | 63.051 | −0.29 | −2.70 | 54.937 | – | – | – | –
CC(C)NC(=O)CN1CCN(c2ccc(C(=O)O)cc2NC(=O)c2ccccc2Cl)CC1 [Compound F086-0028] | – | – | – | −0.55 | −3.98 | 53.848 | −0.21 | −1.95 | 57.208 | – | – | – | –
COCCCNC(=O)CN1CCN(c2ccc(C(=O)O)cc2NC(=O)c2ccccc2Cl)CC1 [Compound F086-0033] | – | – | – | −0.26 | −1.88 | 60.787 | −0.24 | −2.23 | 56.359 | – | – | – | –
O=C(O)c1ccc(N2CCN(c3ccccn3)CC2)c(NC(=O)c2ccc(Br)cc2)c1 [Compound F086-0619] | – | – | – | −0.11 | −0.82 | 64.289 | −0.20 | −1.83 | 57.556 | – | – | – | –
Nc1c(C(=O)N2CCCC2)sc(=S)n1Cc1ccccc1 [Compound F128-0041] | – | – | – | −0.05 | −0.34 | 65.885 | −0.15 | −1.37 | 58.95 | – | – | – | –
Nc1c(C(=O)N2CCCCC2)sc(=S)n1Cc1ccccc1 [Compound F128-0042] | – | – | – | −0.22 | −1.57 | 61.817 | −0.36 | −3.35 | 52.985 | – | – | – | –
Nc1c(C(=O)NCC2CCCO2)sc(=S)n1-c1ccc(Cl)cc1 (stereo not drawn) [Compound F128-0076] | – | – | – | −0.08 | −0.57 | 65.12 | −0.12 | −1.11 | 59.748 | – | – | – | –
CS(=O)(=O)Nc1cnc(N2CCC(C(N)=O)(N3CCCCC3)CC2)c(C(=O)O)c1 [Compound F293-0183] | – | – | – | −0.19 | −1.40 | 62.398 | −0.33 | −3.08 | 53.8 | – | – | – | –
O=C(O)c1cc(NS(=O)(=O)c2cc(F)ccc2F)cnc1N1CCC(N2CCCCC2)CC1 [Compound F293-0616] | – | – | – | −0.36 | −2.62 | 58.357 | −0.03 | −0.30 | 62.171 | – | – | – | –
CS(=O)(=O)Nc1cnc(N2CCC(CCN3CCOCC3)CC2)c(C(=O)O)c1 [Compound F293-0898] | – | – | – | −0.44 | −3.21 | 56.403 | −0.11 | −1.00 | 60.078 | – | – | – | –
CN(C)S(=O)(=O)Nc1cnc(N2CCC(CCN3CCCCC3)CC2)c(C(=O)O)c1 [Compound F293-0962] | – | – | – | −0.18 | −1.30 | 62.732 | −0.33 | −3.10 | 53.726 | – | – | – | –
CCN(Cc1ccccc1)c1ccc(NS(=O)(=O)c2ccc(OC)cc2)cc1C(=O)O [Compound F294-0003] | – | – | – | −0.48 | −3.46 | 55.595 | −0.10 | −0.96 | 60.198 | – | – | – | –
CN(C)S(=O)(=O)Nc1ccc(N2CCC(C(N)=O)(N3CCCCC3)CC2)c(C(=O)O)c1 [Compound F294-0183] | – | – | – | −0.33 | −2.37 | 59.182 | −0.30 | −2.83 | 54.549 | – | – | – | –
CN(C)S(=O)(=O)Nc1ccc(N2CCC(CCN3CCOCC3)CC2)c(C(=O)O)c1 [Compound F294-0900] | – | – | – | −0.19 | −1.40 | 62.393 | −0.24 | −2.23 | 56.357 | – | – | – | –
CN(C)S(=O)(=O)Nc1ccc(N2CCCC(CN3CCCC3)C2)c(C(=O)O)c1 (stereo not drawn) [Compound F294-0983] | – | – | – | −0.40 | −2.90 | 57.443 | −0.35 | −3.23 | 53.339 | – | – | – | –
